In assay [1] the target is T1, SARS-CoV-2 PLpro (nsp3 1564–1878) (Severe acute respiratory syndrome coronavirus 2, UniProt P0DTD1). As to the kind of experiment: biochemical. Details: FRET-quenched peptide (Pro3) cleavage by PLpro, 10 min pre-incubation, slope over 20 min, normalised to no-compound control. The conditions noted are these: low concentration screen, read-out: % of control remaining.
The target of assay [2] is T1, SARS-CoV-2 PLpro (nsp3 1564–1878). As to the kind of experiment: biochemical. Details: FRET-quenched peptide (Pro3) cleavage by PLpro, 10 min pre-incubation, slope over 20 min, normalised to no-compound control. The conditions noted are these: high concentration screen, read-out: % of control remaining.

SMILES strings stand for the structures. Where a name gives a salt, the structure may show the parent alone. Read-outs that look alike come from different tables or passages of the source. Where a SMILES comes first, the peptide text is derived from it. [ ]: non-standard residue; d: D form. The star is where a group is joined. Dolaproine = CO[C@@H]([C@@H]1CCCN1)[C@@H](C)C(=O)O; Hexanoyl(6-maleimido) = O=C1C=CC(=O)N1CCCCCC(=O)*; Dil = CC[C@H](C)[C@H](NC)[C@@H](CC(=O)O)OC; X2 = C[C@@H](N*)[C@@H](O)c1ccccc1; NMeV = CN[C@H](C(=O)O)C(C)C

On to `CC[C@H](C)[C@@H]([C@@H](CC(=O)N1CCC[C@H]1[C@H](OC)[C@@H](C)C(=O)N[C@H](C)[C@@H](O)c1ccccc1)OC)N(C)C(=O)[C@@H](NC(=O)[C@H](C(C)C)N(C)C(=O)CCCCCN1C(=O)C=CC1=O)C(C)C` [Mc-MMAE] ({Hexanoyl(6-maleimido)}-[NMeV]V[Dil][Dolaproine]-X2), for which the remaining activity at 1.25 µM in assay [1] (Well no.=8552) was found to be 93.6%. Further, the remaining activity at 3.75 µM in assay [2] (Well no.=8552) came out at 98.9%.
`CC[C@H](C)[C@@H]([C@@H](CC(=O)N1CCC[C@H]1[C@H](OC)[C@@H](C)C(=O)N[C@@H](Cc1ccccc1)C(=O)O)OC)N(C)C(=O)[C@@H](NC(=O)[C@H](C(C)C)N(C)C(=O)CCCCCN1C(=O)C=CC1=O)C(C)C` [McMMAF] ({Hexanoyl(6-maleimido)}-[NMeV]V[Dil][Dolaproine]F-OH): the remaining activity at 1.25 µM in assay [1] (Well no.=7742) turned out to be 97.3%. Moreover, in assay [2] (Well no.=7742), the remaining activity at 3.75 µM turned out to be 101%.
As to `C[N+](C)(C)CC#CCOC(=O)Nc1cccc(Cl)c1` [McN-A-343], the remaining activity at 1.25 µM in assay [1] (Well no.=184) amounted to 102%. In addition, the remaining activity at 3.75 µM in assay [2] (Well no.=184) came out at 96.2%.
Regarding `O=C(O)COc1ccccc1C(Nc1ccccn1)c1cc(Cl)c2cccnc2c1O` (stereo not shown) [Mcl1-IN-1], the remaining activity at 1.25 µM in assay [1] (Well no.=6880) was 99.8%. Further, the remaining activity at 3.75 µM in assay [2] (Well no.=6880) turned out to be 96.8%.
Regarding `CN(N=O)c1ccc(O)c(O)c1` [Me-3,4-dephostatin], the remaining activity at 1.25 µM in assay [1] (Well no.=1131) stood at 95.2%. Besides, the remaining activity at 3.75 µM in assay [2] (Well no.=1131) is 91.3%.
For the compound `CCCCCCCC/C=C\C/C=C\C/C=C\CCCC(=O)NCCO` [Mead ethanolamide], in assay [1] (Well no.=4324), the remaining activity at 1.25 µM was determined as 99.8%. Also, the remaining activity at 3.75 µM in assay [2] (Well no.=4324) came out at 95.4%.
For the compound `COC(=O)Nc1nc2cc(C(=O)c3ccccc3)ccc2[nH]1` [Mebendazol], in assay [1] (Well no.=1947), the remaining activity at 1.25 µM came to 99%. For the same compound, in assay [2] (Well no.=1947), the remaining activity at 3.75 µM was 100%.
As to `CCN(CCCCOC(=O)c1ccc(OC)c(OC)c1)C(C)Cc1ccc(OC)cc1` (stereo not shown) [Mebeverine (hydrochloride)], the remaining activity at 1.25 µM in assay [1] (Well no.=7048) stood at 108%. For the same compound, in assay [2] (Well no.=7048), the remaining activity at 3.75 µM was 101%.
For `CN1CCc2c(c3ccccc3n2Cc2ccccc2)C1` [Mebhydrolin (napadisylate)], the remaining activity at 1.25 µM in assay [1] (Well no.=7437) was 99.4%. For the same compound, the remaining activity at 3.75 µM in assay [2] (Well no.=7437) is 94.1%.
As to `CNC1(C)C2CCC(C2)C1(C)C` (stereo not shown) [Mecamylamine hydrochloride], the remaining activity at 1.25 µM in assay [1] (Well no.=987) is 98.1%. Also, the remaining activity at 3.75 µM in assay [2] (Well no.=987) amounted to 99.8%.
On to `CNC1(C)C2CCC(C2)C1(C)C` (stereo not shown) [Mecamylamine], for which the remaining activity at 1.25 µM in assay [1] (Well no.=1556) stood at 103%. In assay [2] (Well no.=1556), the remaining activity at 3.75 µM is 102%.
With `CCOC(=O)c1c(C)n(C)c2ccc(O)cc12` [Mecarbinate], the remaining activity at 1.25 µM in assay [1] (Well no.=4756) is 98.2%. Besides, the remaining activity at 3.75 µM in assay [2] (Well no.=4756) came to 95.8%.
With `Cc1ccc(Cl)c(Nc2ccccc2C(=O)O)c1Cl` [Meclofenamic acid sodium salt], the remaining activity at 1.25 µM in assay [1] (Well no.=5492) amounted to 104%. Besides, in assay [2] (Well no.=5492), the remaining activity at 3.75 µM stood at 106%.
As to `Cc1ccc(Cl)c(Nc2ccccc2C(=O)O)c1Cl` [Meclofenamic acid sodium], in assay [1] (Well no.=784), the remaining activity at 1.25 µM was 103%. For the same compound, the remaining activity at 3.75 µM in assay [2] (Well no.=784) was 103%.
Consider `Cc1cccc(C(C)c2c[nH]cn2)c1C` (stereo not shown) [Medetomidine (hydrochloride)], for which the remaining activity at 1.25 µM in assay [1] (Well no.=7479) came to 103%. Further, the remaining activity at 3.75 µM in assay [2] (Well no.=7479) turned out to be 99.7%.
As for `Cc1cccc(C(C)c2c[nH]cn2)c1C` (stereo not shown) [Medetomidine HCl], in assay [1] (Well no.=4927), the remaining activity at 1.25 µM worked out at 99.2%. In assay [2] (Well no.=4927), the remaining activity at 3.75 µM came to 100%.
For the compound `CC(=O)O[C@]1(C(C)=O)CC[C@H]2[C@@H]3C[C@H](C)C4=CC(=O)CC[C@]4(C)[C@H]3CC[C@@]21C` [Medroxyprogesterone 17-Acetate], in assay [1] (Well no.=1949), the remaining activity at 1.25 µM worked out at 103%. For the same compound, the remaining activity at 3.75 µM in assay [2] (Well no.=1949) was 104%.
Regarding `Cc1cccc(Nc2ccccc2C(=O)O)c1C` [Mefenamic acid], the remaining activity at 1.25 µM in assay [1] (Well no.=1951) was determined as 97.7%. Further, the remaining activity at 3.75 µM in assay [2] (Well no.=1951) turned out to be 99.7%.
`CC(=O)O[C@]1(C(C)=O)CC[C@H]2[C@@H]3C=C(C)C4=CC(=O)CC[C@]4(C)[C@H]3CC[C@@]21C` [Megestrol Acetate]: the remaining activity at 1.25 µM in assay [1] (Well no.=2236) came out at 95%. Moreover, in assay [2] (Well no.=2236), the remaining activity at 3.75 µM stood at 93.2%.
With `CNC[C@H](O)[C@@H](O)[C@H](O)[C@H](O)CO` [Meglumine], the remaining activity at 1.25 µM in assay [1] (Well no.=1565) worked out at 104%. Moreover, in assay [2] (Well no.=1565), the remaining activity at 3.75 µM was determined as 104%.
Turning to `CN1C(=O)/C(=C2/C(=O)Nc3ccccc32)c2ccccc21` [Meisoindigo], the remaining activity at 1.25 µM in assay [1] (Well no.=6772) was 94.5%. The remaining activity at 3.75 µM in assay [2] (Well no.=6772) was determined as 95%.
For the compound `COc1ccc2[nH]cc(CCNC(C)=O)c2c1` [Melatonin], the remaining activity at 1.25 µM in assay [1] (Well no.=1072) was 98.6%; in assay [1] (Well no.=1665), 106%; in assay [1] (Well no.=3320), 99.3%; in assay [1] (Well no.=3990), 101%; in assay [1] (Well no.=6347), 97.8%; in assay [1] (Well no.=6565), 103%. The remaining activity at 3.75 µM turned out to be 101% in assay [2] (Well no.=1072); 107% in assay [2] (Well no.=1665); 98.5% in assay [2] (Well no.=3320); 102% in assay [2] (Well no.=6347); 96.1% in assay [2] (Well no.=6565).
As for `C=C1C[C@H]2[C@@H]3C=C(C)C4=CC(=O)CC[C@]4(C)[C@H]3CC[C@]2(C)[C@@]1(OC(C)=O)C(C)=O` [Melengestrol Acetate], the remaining activity at 1.25 µM in assay [1] (Well no.=2238) was 99.1%. In assay [2] (Well no.=2238), the remaining activity at 3.75 µM turned out to be 99.4%.
`Cc1cnc(NC(=O)C2=C(O)c3ccccc3S(=O)(=O)N2C)s1` [Meloxicam sodium]: the remaining activity at 1.25 µM in assay [1] (Well no.=974) is 98.2%. Moreover, the remaining activity at 3.75 µM in assay [2] (Well no.=974) worked out at 99.2%.
With `Cc1cnc(NC(=O)C2=C(O)c3ccccc3S(=O)(=O)N2C)s1` [Meloxicam], in assay [1] (Well no.=1578), the remaining activity at 1.25 µM came out at 94.4%. For the same compound, in assay [2] (Well no.=1578), the remaining activity at 3.75 µM was 96.6%.
In the case of `N[C@@H](Cc1ccc(N(CCCl)CCCl)cc1)C(=O)O` [Melphalan], the remaining activity at 1.25 µM was determined as 94.4% in assay [1] (Well no.=1112) and 100% in assay [1] (Well no.=1953). The remaining activity at 3.75 µM in assay [2] (Well no.=1112) was determined as 94.4%.
As to `CC12CC3CC(C)(C1)CC(N)(C3)C2` [Memantine hydrochloride], in assay [1] (Well no.=1083), the remaining activity at 1.25 µM was 97.8%. Moreover, the remaining activity at 3.75 µM in assay [2] (Well no.=1083) was found to be 99.3%.
Consider `CC12CC3CC(C)(C1)CC(N)(C3)C2` [Memantine.HCl], for which the remaining activity at 1.25 µM in assay [1] (Well no.=1887) is 94.9%. In assay [2] (Well no.=1887), the remaining activity at 3.75 µM came to 95.2%.
As to `CC1=CC(=O)c2ccccc2C1=O` [Menadione], the figures for the remaining activity at 1.25 µM in assay [1] (Well no.=3372) and in assay [1] (Well no.=6251) were 98.5% and 99.2%, respectively. The figures for the remaining activity at 3.75 µM in assay [2] (Well no.=3372) and in assay [2] (Well no.=6251) were 96.5% and 101%, respectively.

The values are drawn from publication PMC8286840, “Identifying SARS-CoV-2 antiviral compounds by screening for small molecule inhibitors of Nsp3 papain-like protease” (Biochemical Journal, 2021).
